Assay results taken from patent US20240261315A1 (Omikron Italia S.r.l., priority 2021, published 2024).

Experiments:
[1] = set-up: species or system Sprague-Dawley rats; conditions: male, Sprague-Dawley, rat, in vivo
Description: The bioavailability of citicoline existing in the composition, the invention relates to, was surveyed by making a bioavailability study on Sprague-Dawley rats. In particular, 30 Sprague-Dawley male rats, weighing 175 and 225 g, were subjected fasting 16 hours before administration.
For the preparation of the radiomarked formulations 14C-methylCiticoline and […] were used.
The preparations were purified by ion-exchange chromatography by using isobutyric acid:water-ammonia:EDTA (500:280:21:8), n-butanol:acetic acid:water (12:3:5), ethanol:1 mol/l ammonium acetate pH 7 (5:2), ethanol:saturated borax (8%):0.5 mol/l EDTA:5 mol/l ammonium acetate (220:80:0.5:20).
The samples were analysed with a liquid scintillator counter LSC, according to the programme for ^14C.
For the quantitative analysis Packard soluene (solubilizing agent), H2O2 (bleaching agent) and Packard Instagel (scintillator) were used as reagents.
The formulations were administered at the dose of 5 mg/kg respectively: Group 1, intravenously in the jugular vein; Group 2, in oral solution administered by nasogastric tube; Group 3, in tablets dissolved in saline solution and administered by nasogastric tube.
The collections of blood samples of about […] were obtained at programmed time (after administration at 10′, 20′, 30′, 1 h, 2 h, 3 h, 4 h, 5 h, 6 h, 7 h, 24 h). […]

[2] = tested on: patients affected by open-angle glaucoma; assay: Clinical observation in open-angle glaucoma patients: intraocular pressure (Goldmann tonometry); format: in vivo, human; conditions: after 6 months of treatment, in addition to hypotensive therapy, 3 patients
Description: 12 randomized patients were included in 4 groups: • CIT. GROUP-3 patients treated with citicoline in oral solution 10 ml/die corresponding to 500 mg/die of citicoline, in addition to the hypotensive therapy; • NIC. […] The patients were treated and followed for 6 months. At baseline and after 6 months of treatment complete eye examination including visual acuity, control of the intraocular pressure (IOP) with Goldmann tonometry (GAT); visual field testing, electro-functional and morphological examination were performed.

[3] = tested on: patients affected by open-angle glaucoma; assay: Clinical observation: visual field testing by automatic perimetry (MD); format: in vivo, human; conditions: for change in MD: 6 months, vs baseline or not treated group; for MD: after 6 months of treatment, in addition to hypotensive therapy, 3 patients
Description: 12 randomized patients were included in 4 groups: • CIT. GROUP-3 patients treated with citicoline in oral solution 10 ml/die corresponding to 500 mg/die of citicoline, in addition to the hypotensive therapy; • NIC. […] The patients were treated and followed for 6 months. At baseline and after 6 months of treatment complete eye examination including visual acuity, control of the intraocular pressure (IOP) with Goldmann tonometry (GAT); visual field testing, electro-functional and morphological examination were performed. (1) The visual field testing was performed with automatic perimetry (HFA, Sita Standard 24-2 protocol; Zeiss, San Leandro, CA, USA). Such analysis represents the gold standard for diagnosis and follow-up of the glaucomatous patient and allows to represent graphically the extension in the space of the visual capability, by measuring even the peripheral vison thereof. Two analyses on each examination were performed and the second test was considered for the analysis. To perform the test, the patients were positioned in front of the instrument. After having rested forehead and chin inside the dome, with the covered unexamined eye, they started to fix a central target and pressed a button whenever they perceived against themselves aluminous stimulus, even if with poor intensity. MD was considered as perimetric index.

retinal ganglion cells = assay: Clinical observation: electro-functional test, PERG; format: in vivo, human; conditions: after 6 months of treatment, in addition to hypotensive therapy, 3 patients
Description: 12 randomized patients were included in 4 groups: • CIT. GROUP-3 patients treated with citicoline in oral solution 10 ml/die corresponding to 500 mg/die of citicoline, in addition to the hypotensive therapy; • NIC. […] The patients were treated and followed for 6 months. At baseline and after 6 months of treatment complete eye examination including visual acuity, control of the intraocular pressure (IOP) with Goldmann tonometry (GAT); visual field testing, electro-functional and morphological examination were performed. Then (2) electro-functional test was performed: electroretinogram from PERG pattern and of the PEV visual evoked potentials to evaluate the bioelectric responses respectively of the retinal ganglion cells and of the visual cortex evoked from the visual stimuli. The patients were positioned in an acoustically insulated semi-dark room, in front of the display surrounded by a uniform field of luminance of 5 cd/m2. […] The signal to PERG and PEV was recorded by a small electrode of Ag/AgCl positioned respectively above the lower eyelid and on the scalp. […] The peak-peak widths were measured at PERG P50-N95 for each wave. […] During a recording session, simultaneous PERG and PEV were recorded at least twice (between two and six times) and the resulting waveforms were overlapped to verify the repeatability of results. […]

SMILES	bioavailability [1] [%]	IOP [2]	change in MD [3]	MD [3]	PERG P50-N95 A (retinal ganglion cells)
C[N+](C)(C)CCOP(=O)([O-])OP(=O)(O)OC[C@H]1O[C@@H](n2ccc(N)nc2=O)C(O)C1O (stereo partly shown) [Citicoline, citidin-5′-difosfocholine]	~100	13.8 (±1.8)	significant improvement in MD with respect to the baseline	−8.70 (±2.8)	1.77 (±0.27) microV
NC(=O)c1cccnc1 [Nicotinamide]	~100	14.0 (±2.3)^	lower reduction in the MD value with respect to the not treated group	−8.92 (±2.6)*^	1.74 (±0.21) microV
